Read-outs that look alike come from different tables or passages of the source.
What was measured:
[1] = target: T1, STAT6 (Homo sapiens, UniProt P42226); experiment: Immunoblotting (Western blot) analysis of STAT6 degradation efficiency of degraders in treated cells; assay type: cell-based; details: MOLM-16 cells, read-out: DC50 S6 MOLM-16
T1 construct: endogenous in cells; host or cells: MOLM-16, KU-812, SKNO1, MB231, L1236
T1 sequence (P42226 1-847): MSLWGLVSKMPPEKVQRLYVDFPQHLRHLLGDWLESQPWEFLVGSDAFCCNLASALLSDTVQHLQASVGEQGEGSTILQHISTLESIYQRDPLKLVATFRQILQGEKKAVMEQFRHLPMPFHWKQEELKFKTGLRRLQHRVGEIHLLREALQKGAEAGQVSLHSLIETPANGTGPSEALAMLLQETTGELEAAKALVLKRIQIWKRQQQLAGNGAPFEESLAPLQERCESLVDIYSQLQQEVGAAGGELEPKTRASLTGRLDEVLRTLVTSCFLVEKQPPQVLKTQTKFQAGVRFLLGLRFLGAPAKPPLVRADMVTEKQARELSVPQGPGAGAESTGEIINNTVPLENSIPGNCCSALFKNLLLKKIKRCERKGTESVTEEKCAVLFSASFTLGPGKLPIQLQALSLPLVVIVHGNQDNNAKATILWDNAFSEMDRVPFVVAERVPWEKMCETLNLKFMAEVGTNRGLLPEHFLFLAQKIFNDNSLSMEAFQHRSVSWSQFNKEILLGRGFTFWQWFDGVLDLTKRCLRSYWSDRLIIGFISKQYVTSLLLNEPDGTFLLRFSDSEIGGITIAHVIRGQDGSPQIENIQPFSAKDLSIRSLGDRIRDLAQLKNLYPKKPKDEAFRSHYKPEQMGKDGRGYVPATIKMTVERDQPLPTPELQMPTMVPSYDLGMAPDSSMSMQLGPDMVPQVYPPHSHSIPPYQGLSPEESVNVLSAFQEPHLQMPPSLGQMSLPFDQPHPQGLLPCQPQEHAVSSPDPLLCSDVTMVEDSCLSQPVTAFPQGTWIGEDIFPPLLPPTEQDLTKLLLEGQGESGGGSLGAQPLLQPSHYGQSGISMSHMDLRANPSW
Procedure, shortened: (§1)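 Protein levels of STAT5 and STAT6 were assessed in cells cultured at 37 °C in 10% FBS medium after compound exposure, by quantitative fluorescent Western blotting normalised to equal loading and referenced to GAPDH.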

[2] = tested on: STAT5; experiment: Immunoblotting (Western blot) analysis of STAT5 degradation efficiency of degraders in treated cells; assay type: cell-based
Procedure, shortened: as §1

[3] = MOLM-16 cells, numeric bound, read-out: DC50 S5 MOLM-16
[4] = KU-812 cells, read-out: DC50 S5 KU-812
[5] = MOLM-16 cells, class symbols, read-out: DC50 S5 MOLM-16
[6] = SKNO1 cells, read-out: DC50 S5 SKNO1

| Structure (SMILES) | DC50 ([1]; numeric bound) [nM] | DC50 [2, 3] [nM] | DC50 ([1]; class symbols) [nM] | DC50 [2, 4] [nM] | DC50 [2, 5] [nM] | DC50 [2, 6] [nM] |
| --- | --- | --- | --- | --- | --- | --- |
| Cc1ncsc1-c1ccc([C@H](CC(=O)NCCCCCCCCC(=O)N[C@@H]2C[C@@H](C(=O)Nc3ncc(-c4ccccc4)s3)N(C(=O)[C@@H](NC(=O)c3cc4cc(C(F)(F)P(=O)(O)O)ccc4s3)C(C)(C)C)C2)NC(=O)[C@@H]2C[C@@H](O)CN2C(=O)[C@@H](NC(=O)C2(F)CC2)C(C)(C)C)cc1 [Compound 578, (difluoro(2-(((S)-1-((2S,4R)-4-(9-((S)-3-((2S,4R)-1-((S)-2-(1-fluorocyclopropane-1-carboxamido)-3,3-dimethylbutanoyl)-4-hydroxypyrrolidine-2-carboxamido)-3-(4-(4-methylthiazol-5-yl)phenyl)propanamido)nonanamido)-2-((5-phenylthiazol-2-yl)carbamoyl)pyrrolidin-1-yl)-3,3-dimethyl-1-oxobutan-2-yl)carbamoyl)benzo[b]thiophen-5-yl)methyl)phosphonic acid] | > 300 | > 300 |  |  |  |  |
| CN(CCCC#Cc1cccc2c1CN(C1CCC(=O)NC1=O)C2=O)C(=O)CCN(C(=O)[C@@H]1CCCN1C(=O)[C@@H](NC(=O)c1cc2cc(C(F)(F)P(=O)(O)OCOC(=O)C(C)(C)C)ccc2s1)C(C)(C)C)c1ccc(-c2nccs2)cc1 (stereo partly drawn) [Compound 679, ((((2-(((2S)-1-((2S)-2-((3-((5-(2-(2,6-dioxopiperidin-3-yl)-1-oxoisoindolin-4-yl)pent-4-yn-1-yl)(methyl)amino)-3-oxopropyl)(4-(thiazol-2-yl)phenyl)carbamoyl)pyrrolidin-1-yl)-3,3-dimethyl-1-oxobutan-2-yl)carbamoyl)benzo[b]thiophen-5-yl)difluoromethyl)(hydroxy)phosphoryl)oxy)methyl pivalate] |  |  | > 10000 | 100 to 1000 | < 100 |  |
| CN(CCCC#Cc1cccc2c1CN(C1CCC(=O)NC1=O)C2=O)C(=O)CCN(C(=O)[C@@H]1CCCN1C(=O)[C@@H](NC(=O)c1cc2cc(C(F)(F)P(=O)(O)OCOC(=O)C(C)(C)C)ccc2s1)C(C)(C)C)c1ccc2cc(F)ccc2c1 (stereo partly drawn) [Compound 675, ((((2-(((2S)-1-((2S)-2-((3-((5-(2-(2,6-dioxopiperidin-3-yl)-1-oxoisoindolin-4-yl)pent-4-yn-1-yl)(methyl)amino)-3-oxopropyl)(6-fluoronaphthalen-2-yl)carbamoyl)pyrrolidin-1-yl)-3,3-dimethyl-1-oxobutan-2-yl)carbamoyl)benzo[b]thiophen-5-yl)difluoromethyl)(hydroxy)phosphoryl)oxy)methyl pivalate] | > 300 |  |  |  | 100 to 1000 |  |
| CC(C)(C)[C@H](NC(=O)c1cc2cc(C(F)(F)P(=O)(O)O)ccc2s1)C(=O)N1CCC[C@H]1C(=O)N(CCC(=O)NCCCC#Cc1cccc2c1CN(C1CCC(=O)NC1=O)C2=O)c1ccc2c(c1)CCCO2 (stereo partly drawn) [Compound 669, ((2-(((2S)-1-((2S)-2-(chroman-6-yl(3-((5-(2-(2,6-dioxopiperidin-3-yl)-1-oxoisoindolin-4-yl)pent-4-yn-1-yl)amino)-3-oxopropyl)carbamoyl)pyrrolidin-1-yl)-3,3-dimethyl-1-oxobutan-2-yl)carbamoyl)benzo[b]thiophen-5-yl)difluoromethyl)phosphonic acid] | > 300 | > 300 |  |  |  | > 10000 |
| CC(C)(C)[C@H](NC(=O)c1cc2cc(C(F)(F)P(=O)(O)O)ccc2s1)C(=O)N1CCC[C@H]1C(=O)N(CCC(=O)NCCCC#Cc1cccc2c1CN(C1CCC(=O)NC1=O)C2=O)c1ccc(-c2ccccc2)cc1 (stereo partly drawn) [Compound 663, ((2-(((2S)-1-((2S)-2-([1,1′-biphenyl]-4-yl(3-((5-(2-(2,6-dioxopiperidin-3-yl)-1-oxoisoindolin-4-yl)pent-4-yn-1-yl)amino)-3-oxopropyl)carbamoyl)pyrrolidin-1-yl)-3,3-dimethyl-1-oxobutan-2-yl)carbamoyl)benzo[b]thiophen-5-yl)difluoromethyl)phosphonic acid] | > 300 | > 300 |  | 1000 to 10000 |  | 1000 to 10000 |
| CN(CCCC#Cc1cccc2c1CN(C1CCC(=O)NC1=O)C2=O)C(=O)CCN(C(=O)[C@@H]1CCCN1C(=O)[C@@H](NC(=O)c1cc2cc(C(F)(F)P(=O)(O)OCOC(=O)C(C)(C)C)ccc2s1)C(C)(C)C)c1ccc2scnc2c1 (stereo partly drawn) [Compound 676, ((((2-(((2S)-1-((2S)-2-(benzo[d]thiazol-5-yl(3-((5-(2-(2,6-dioxopiperidin-3-yl)-1-oxoisoindolin-4-yl)pent-4-yn-1-yl)(methyl)amino)-3-oxopropyl)carbamoyl)pyrrolidin-1-yl)-3,3-dimethyl-1-oxobutan-2-yl)carbamoyl)benzo[b]thiophen-5-yl)difluoromethyl)(hydroxy)phosphoryl)oxy)methyl pivalate] | > 300 |  |  |  | < 100 |  |
| CN(CCCC#Cc1cccc2c1CN(C1CCC(=O)NC1=O)C2=O)C(=O)CCN(C(=O)[C@@H]1CCCN1C(=O)[C@@H](NC(=O)c1cc2cc(C(F)(F)P(=O)(O)O)ccc2s1)C(C)(C)C)c1ccc(Br)cc1 (stereo partly drawn) [Compound 665, ((2-(((2S)-1-((2S)-2-((4-bromophenyl)(3-((5-(2-(2,6-dioxopiperidin-3-yl)-1-oxoisoindolin-4-yl)pent-4-yn-1-yl)(methyl)amino)-3-oxopropyl)carbamoyl)pyrrolidin-1-yl)-3,3-dimethyl-1-oxobutan-2-yl)carbamoyl)benzo[b]thiophen-5-yl)difluoromethyl)phosphonic acid] | > 300 |  |  | 100 to 1000 | < 100 | 100 to 1000 |
| CC(C)(C)[C@H](NC(=O)c1cc2cc(C(F)(F)P(=O)(O)O)ccc2s1)C(=O)N1CCC[C@H]1C(=O)N(CCC(=O)NCCCC#Cc1cccc2c1CN(C1CCC(=O)NC1=O)C2=O)c1ccc2occc2c1 (stereo partly drawn) [Compound 661, ((2-(((2S)-1-((2S)-2-(benzofuran-5-yl(3-((5-(2-(2,6-dioxopiperidin-3-yl)-1-oxoisoindolin-4-yl)pent-4-yn-1-yl)amino)-3-oxopropyl)carbamoyl)pyrrolidin-1-yl)-3,3-dimethyl-1-oxobutan-2-yl)carbamoyl)benzo[b]thiophen-5-yl)difluoromethyl)phosphonic acid] | > 300 |  |  | 100 to 1000 | < 100 | 100 to 1000 |
| CC(C)(C)[C@H](NC(=O)c1cc2cc(C(F)(F)P(=O)(O)O)ccc2s1)C(=O)N1CCC[C@H]1C(=O)N(CCC(=O)NCCCC#Cc1cccc2c1CN(C1CCC(=O)NC1=O)C2=O)c1ccc2ccccc2c1 (stereo partly drawn) [Compound 656, ((2-(((2S)-1-((2S)-2-((3-((5-(2-(2,6-dioxopiperidin-3-yl)-1-oxoisoindolin-4-yl)pent-4-yn-1-yl)amino)-3-oxopropyl)(naphthalen-2-yl)carbamoyl)pyrrolidin-1-yl)-3,3-dimethyl-1-oxobutan-2-yl)carbamoyl)benzo[b]thiophen-5-yl)difluoromethyl)phosphonic acid] | > 300 |  |  | 100 to 1000 | < 100 | 100 to 1000 |
| CC(C)(C)[C@H](NC(=O)c1cc2cc(C(F)(F)P(=O)(O)O)ccc2s1)C(=O)N1CCC[C@H]1C(=O)N(CCCCCCCC#Cc1cccc2c1CN(C1CCC(=O)NC1=O)C2=O)c1ccc(-c2nccs2)cc1 (stereo partly drawn) [Compound 670, ((2-(((2S)-1-((2S)-2-((9-(2-(2,6-dioxopiperidin-3-yl)-1-oxoisoindolin-4-yl)non-8-yn-1-yl)(4-(thiazol-2-yl)phenyl)carbamoyl)pyrrolidin-1-yl)-3,3-dimethyl-1-oxobutan-2-yl)carbamoyl)benzo[b]thiophen-5-yl)difluoromethyl)phosphonic acid] | > 300 | > 300 |  |  |  | > 10000 |

Reference: patent US20230295197A1, “STAT5 and STAT6 Degraders and Uses Thereof” (REGENTS OF THE UNIVERSITY OF MICHICAN, priority 2022, published 2023)
